Earlier results as cited in patent US20060188492A1, “Topical management of ocular and periocular conditions” (ChronoRX LLC, an Alaska Limited Liability Company, priority 2005, published 2006).

Experiments:
lens = conditions: experimental evidence; compared with the R isomer
[1] = system: bovine aortic endothelial cells; conditions: LA added before endothelial exposure to AGE albumin
[2] = in the presence of glutathione (GSH)

Row | SMILES | prevention of cataract development (lens) | also measured
1 | O=C(O)CCCCC1CCSS1 (single isomer, unassigned) [S isomer, 1,2-dithiolane-3-pentanoic acid] | not effective | –
2 | O=C(O)CCCCC1CCSS1 (racemic) [racemic mixture, 1,2-dithiolane-3-pentanoic acid] | less than one-half as effective as the R isomer | –
3 | O=C(O)CCCCC1CCSS1 (centres unmarked) [LA, 1,2-dithiolane-3-pentanoic acid] | – | depletion of GSH and ascorbic acid [1]: completely prevents depletion of GSH and ascorbic acid
4 | C[C@]12CC[C@@H]3c4ccc(O)cc4CC[C@H]3[C@@H]1CC[C@H]2O [estradiol, 17 α-estradiol] | – | increase of neuroprotective potency [2]: 400 fold
5 | O=C(O)CCCCC1CCSS1 (stereo not drawn) [R stereoisomer of LA, 1,2-dithiolane-3-pentanoic acid] | can prevent cataract development | –
